Measurements as given in patent US4909257A, “Method for attaining in vivo tissue-specific contrast by nuclear magnetic resonance imaging” (priority 1989, dated 1990).

Assays:
normal BALB/C mice = test: Toxicity (acute lethality) after i.v. tail vein injection in mice; format: in vivo; settings: 0.2 mL, five BALB/C mice per dose group, 7 days
Procedure: Solutions were prepared to evaluate the toxicity of the chelators and ferric complexes of the chelators.
A 1.2 M stock ferric solution was prepared by dissolving 32 g of FeCl3 * 6 H2 O in 100 mL of 0.1 N HCl. It was standardized by EDTA titration using Variamine Blue B indicator.
A solution or suspension of 10 mmoles of each ligand in 20 mL of water was 70-80% neutralized by reaction with NaOH. The resulting solution (pH~9) was added dropwise to a solution of 10.1 mmoles of FeCl3 in 10 mL of water. The reaction mixture was adjusted to pH 7.0 with solid NaHCO3 and stirred at 60°-80° C. for two hours. It then was ccentrifuged, and the supernatant was filtered through a 0.22 micron filter. […] Th filtrate was concentrated on a rotary evaporator, the pH adjusted to 7.0, and the volume adjusted to 20 mL.
Tiron was obtained as the sodium salt. An aqueous 0.5 M solution was treated with a 2% excess of FeCl3, and the reaction mixture was worked up as above.
A suspension of 3.6 g (10 mmoles) of EHPG in 15 mL of water was reacted with 17 mL of 2 N NaOH. The resulting dark yellow-orange solution was added dropwise to a solution of 2.7 g […] of FeCl3 * 6 H2 O in 10 mL of water. The reaction mixture was warmed to 60°-80° C. and held at that temperature for 2 hours. The thick orange-red suspension was diluted to 120 mL and heated to 90°-100° C. The hot suspension was filtered through filter aid, and the filtrate was allowed to cool to room temperature.
Rather than crystallizing the product, the pH of the reaction mixture was adjusted to 7.0 with NaHCO3 and filtered. The filtrate was used for subsequent experiments after appropriate volume adjustments and Fe determination.
For each compound at each dose, five normal BALB/C mice weighing 19-22 g were treated with test solution by injection into the tail vein. The injection volumes were approximately 0.2 mL. The behavior and condition of the mice were monitored for 1 week.

[1] = Magnetic resonance imaging contrast enhancement (2 Tesla, coronal spin echo); format: in vivo, BALB/C mice; settings: for MRI: increase in signal intensity in the gall bladder: in contrast to Fe-EHPG and Fe-HBED; for MRI: urinary bladder concentration: mouse, in vivo
[2] = Organ distribution and clearance of 59Fe-labeled complexes; format: in vivo, BALB/C mice
Procedure: ^59 Fe was obtained as 0.06 M FeCl3 in 0.5 N HCl; the specific activity was approximately 20 mCi/mmole (1.2 mCi/mL). Labeled commplexes were preared by treating in a Teflon vial 10 uL of ^59 FeCl3 with 25 uL of 2.0×10^-2 M solution of ligand, followed by 0.25 mL of 0.36 M, pH 7.3 Na HEPES buffer and 0.74 mL of water. The reaction mixture was held at 80° C. for 2 hours and then treated with 0.2 mL of 0.12 M solution of Fe-ligand complex. The resulting solution was filtered through a 0.22 u filter. A 0.2 mL dose contained 0.004 mmole of Fe-chelate with 2 uCi of ^59 Fe. ^59 Fe acetate was prepared as above, but without addition of unlabeled carrier Fe acetate.
For each complex shown in FIG. 1, a group of five BALB/C mice were treated as above with 0.2 mmole/Kg of labeled Fe-complex containing approximately 2 uCi of ^59 Fe. The animals were counted immediately after injection and at 2 hours, 1, 2, 4, and 7 days. Whole body counts were obtained using a Nuclear Chicago Tobor chamber gamma counter. Raw counts were background-subtracted and back-decayed to t0, the time of injection. An ^59 Fe standard and background were counted at each time point.
After the appropriate time period, the animals were sacrificed and dissected. Organ weights were measured, and the organs were counted in a gamma counter. Due to its small size, the gall bladder was combined with the small intestine for weighing and counting. An ^59 Fe standard was also counted at each time point. Raw counts were background-subtracted and back-decayed to t0, the time of injection. Activity was computed as a fraction of injected dose per gram of tissue.

[3] = Dose needed for NMR contrast enhancement; format: in vivo; settings: doses as low as

| Molecule | LD-0 (maximum dose at which no mortality was observed for seven days post injection) (normal BALB/C mice) [mmol/kg] | LD-100 (minimum dose for which 100% mortality was observed for seven days post injection) (normal BALB/C mice) [mmol/kg] | MRI: increase in signal intensity in the gall bladder [1] | MRI: urinary bladder concentration [1] | further results |
| --- | --- | --- | --- | --- | --- |
| CC(=O)N(O)CCCCCNC(=O)CCC(=O)N(O)CCCCCNC(=O)CCC(=O)N(O)CCCCCN [DF, Desferrioxamine B] | 0.5 | 1 | – | – | – |
| O=C([O-])CN(CCO)CCN(CC(=O)[O-])CC(=O)[O-].[Fe+3] [Fe--HEDTA] | – | 0.5 | – | – | – |
| O=C(O)CN(CC(=O)O)[C@@H]1CCCC[C@H]1N(CC(=O)O)CC(=O)O (relative stereo) [CDTA, trans-1,2-cyclohexanediaminotetraacetic acid] | 0.05 | 0.5 | – | – | – |
| CC(=O)N([O-])CCCCCNC(=O)CCC(=O)N([O-])CCCCCNC(=O)CCC(=O)N([O-])CCCCCN.[Fe+3] [Fe--DF] | 0.5 | 2 | essentially none in the gall bladder | concentrated in the urinary bladder | – |
| GD-DTPA [reference compound] | – | – | essentially none in the gall bladder | concentrated in the urinary bladder | – |
| O=C([O-])C(NCCNC(C(=O)[O-])c1ccccc1[O-])c1ccccc1[O-].[Fe+3] (stereo not drawn) [Fe--EHPG] | 0.9 | – | – | concentrated in the urinary bladder | MRI: gall bladder contrast at 50 minutes ([1]; 50 minutes post-contrast): gall bladder contrast remains markedly high; MRI: liver intensity at 50 minutes ([1]; 50 minutes post-contrast): liver intensity has decreased; MRI: gall bladder enhancement, later ([1]; gradual, post-contrast): gradually becomes brighter than the surrounding liver; MRI: liver enhancement ([1]; post-contrast, initial): first concentrate in the liver; MRI: gall bladder enhancement, initial ([1]; while agent first concentrates in the liver): gall bladder remains unenhanced; liver level of 59Fe over time ([2]; 0.2 mmole/Kg labeled Fe-complex, fraction of injected dose per gram of tissue, FIGS. 2 and 3): initially high and then decreased; large intestine levels at 6 hours ([2]; gut tissue and contents, final time of 6 hours): exceeded all of the other values; large intestine levels, up to the 2 hour time point ([2]; gut tissue and contents, up to 2 hours): started and remained lower than the liver or small intestine values; small intestine values over time ([2]; small intestine combined with gall bladder, out to 6 hours): initially low, rose to a maximum at about 1-2 hours, and then decreased out to 6 hours; time of maximum small intestine value ([2]; small intestine combined with gall bladder, printed as about): 1 to 2 h; lowest dose achieving NMR contrast enhancement [3]: 1 mg contrast agent per kilogram weight of the animal |
